Laboratory results: US8846929B2, “Substituted-quinoxaline-type piperidine compounds and the uses thereof” (priority 2007, dated 2014)

Biological target: human opioid receptor-like (ORL-1) (Homo sapiens (Human), UniProt P41146)
Experiment: In vitro ORL-1 receptor [35S]GTPγS functional assay
Type: biochemical
Details: not given

human opioid receptor-like (ORL-1), sequence (P41146 whole entry): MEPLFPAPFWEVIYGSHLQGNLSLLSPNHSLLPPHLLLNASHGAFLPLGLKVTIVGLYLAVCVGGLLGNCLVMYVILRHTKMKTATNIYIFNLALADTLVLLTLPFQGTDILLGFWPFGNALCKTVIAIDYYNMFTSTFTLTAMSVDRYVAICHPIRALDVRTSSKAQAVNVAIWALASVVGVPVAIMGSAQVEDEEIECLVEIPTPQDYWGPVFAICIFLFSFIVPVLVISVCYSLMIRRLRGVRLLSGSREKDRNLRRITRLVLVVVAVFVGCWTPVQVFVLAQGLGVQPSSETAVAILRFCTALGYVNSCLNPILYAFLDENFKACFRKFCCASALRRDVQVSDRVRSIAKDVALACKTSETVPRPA

| SMILES | EC50 |
| --- | --- |
| CC(=O)N[C@H]1CCN(c2nc3ccccc3n(C3CCN(C4CCCCCCC4)CC3)c2=O)C1 [compound 59] | 383 ± 63 nM |
| CS(=O)(=O)N[C@@H]1CCN(c2nc3ccccc3n(C3CCN(C4CCCCCCC4)CC3)c2=O)C1 [compound 66] | 108 ± 15.1 nM |
| O=C(O)c1nc2ccccc2n(C2CC3CCCC(C2)N3C23CC4CC(CC2C4)C3)c1=O (stereo not shown) [compound 263, 4-(9-(hexahydro-2,5-methano-pentalen-3a-yl)-9-aza-bicyclo[3.3.1]non-3-yl)-3-oxo-3,4-dihydro-quinoxaline-2-carboxylic acid] | 298 ± 26 nM |
| CC(=O)N[C@@H]1CCN(c2nc3ccccc3n(C3CCN(C4CCCCCCC4)CC3)c2=O)C1 [compound 37] | 265 ± 31 nM |
| O=C(O)c1ccc(CNC(=O)c2nc3ccccc3n([C@H]3C[C@H]4CC[C@@H](C3)N4C3CCCCCCC3)c2=O)cc1 [compound 314] | 453 ± 66 nM |
| O=c1c(NC[C@@H](O)CO)nc2ccccc2n1C1CCN(C2CCCCCCC2)CC1 [compound 54] | 464 ± 28 nM |
| O=C(NCC(O)CO)c1nc2ccccc2n(C2CCN(C3CCCCCCC3)CC2)c1=O (stereo not shown) [compound 79] | 703 ± 39 nM |
| COC(=O)[C@@H]1CCCN1c1nc2ccccc2n(C2CCN(C3CCCCCCC3)CC2)c1=O [compound 27] | 969 ± 89 nM |
| O=C(O)c1cccc(CNc2nc3ccccc3n([C@H]3C[C@H]4CC[C@@H](C3)N4C3CCCCCCC3)c2=O)c1 [compound 305] | 394 ± 53 nM |
| O=C(c1nc2ccccc2n(C2CCN(C3CCCCCCC3)CC2)c1=O)N1CC2CNCC2C1 (stereo not shown) [compound 73, 1-(1-cyclooctylpiperidin-4-yl)-3-(octahydropyrrolo[3,4-c]pyrrole-2-carbonyl)quinoxalin-2(1H)-one] | 377 ± 115 nM |
| CCOC(=O)CN(C)c1nc2ccccc2n(C2CCN(C3CCCCCCC3)CC2)c1=O [compound 61] | 1230 ± 238 nM |

Test system: FCA-induced inflammation of the rat hind paw
Experiment: not given
Details: in vivo

| SMILES | maximum % reversal of thermal hyperalgesia |
| --- | --- |
| O=C(O)c1nc2ccccc2n([C@H]2C[C@H]3CCC[C@@H](C2)N3C2CCCCCCC2)c1=O [compound 241, 4-((endo)-9-cyclooctyl-9-azabicyclo[3.3.1]nonan-3-yl)-3-oxo-3,4-dihydroquinoxaline-2-carboxylic acid] | about 80% |

Biological target: delta opioid receptor (Homo sapiens (Human), UniProt P41143)
Experiment: In vitro delta-opioid receptor binding assay ([3H]-Naltrindole displacement)
Details: not given

delta opioid receptor, sequence (P41143 whole entry): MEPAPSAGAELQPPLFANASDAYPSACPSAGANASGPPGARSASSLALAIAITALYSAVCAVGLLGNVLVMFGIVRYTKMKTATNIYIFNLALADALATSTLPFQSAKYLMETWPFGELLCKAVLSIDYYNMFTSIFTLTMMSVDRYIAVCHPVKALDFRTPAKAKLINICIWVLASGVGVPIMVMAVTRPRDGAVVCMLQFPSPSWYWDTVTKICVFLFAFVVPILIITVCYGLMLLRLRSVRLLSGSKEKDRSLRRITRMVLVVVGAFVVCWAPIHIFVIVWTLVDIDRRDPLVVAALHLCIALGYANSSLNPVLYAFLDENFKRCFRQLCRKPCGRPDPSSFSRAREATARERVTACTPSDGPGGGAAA

| SMILES | Ki |
| --- | --- |
| O=C(O)c1nc2ccccc2n(C2CC3CCCC(C2)N3C23CC4CC(CC2C4)C3)c1=O (stereo not shown) [compound 263, 4-(9-(hexahydro-2,5-methano-pentalen-3a-yl)-9-aza-bicyclo[3.3.1]non-3-yl)-3-oxo-3,4-dihydro-quinoxaline-2-carboxylic acid] | 526000 nM |
